Measured values as given in ChEMBL document CHEMBL1806359, “Synthesis and evaluation of bidentate ligands designed to interact with PDZ domains” (Bioorg Med Chem, 2011).

Target: Disks large homolog 4 (Mus musculus) (UniProt Q62108)
Assay: Binding affinity to Swiss mouse brain PSD95 domain assessed as inhibition of PSD95-5-HT2A receptor C-terminal decapeptide interaction after overnight incubation by chemiluminescence assay
Assay type: tissue-based

Sequence of Disks large homolog 4 (Mus musculus) (Q62108 whole entry, looked up, the tested form may be a part): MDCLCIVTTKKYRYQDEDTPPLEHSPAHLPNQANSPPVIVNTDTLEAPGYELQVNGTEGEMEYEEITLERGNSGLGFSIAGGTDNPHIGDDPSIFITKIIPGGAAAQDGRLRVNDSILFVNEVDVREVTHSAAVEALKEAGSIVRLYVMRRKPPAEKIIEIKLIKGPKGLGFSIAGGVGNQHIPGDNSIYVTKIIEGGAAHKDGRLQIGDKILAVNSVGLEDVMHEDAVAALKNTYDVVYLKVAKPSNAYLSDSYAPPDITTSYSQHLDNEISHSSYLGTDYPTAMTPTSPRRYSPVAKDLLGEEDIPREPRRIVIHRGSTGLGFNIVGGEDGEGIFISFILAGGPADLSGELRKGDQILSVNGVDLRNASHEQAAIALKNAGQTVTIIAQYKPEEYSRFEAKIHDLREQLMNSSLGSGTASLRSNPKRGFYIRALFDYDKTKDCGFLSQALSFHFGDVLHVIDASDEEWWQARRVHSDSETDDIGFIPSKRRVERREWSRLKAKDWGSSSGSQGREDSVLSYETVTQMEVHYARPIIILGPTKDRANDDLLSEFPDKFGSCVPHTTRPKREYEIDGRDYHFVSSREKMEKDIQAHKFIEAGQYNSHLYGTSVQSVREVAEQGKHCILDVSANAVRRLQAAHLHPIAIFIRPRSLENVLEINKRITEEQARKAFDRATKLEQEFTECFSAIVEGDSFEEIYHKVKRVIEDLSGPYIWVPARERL

Row | SMILES | inhibition
1 | Cc1c(C(=O)NCCN)[nH]c2ccc(C(=O)O)cc12 | Dose-dependent effect
2 | Cc1c(C(=O)O)[nH]c2ccc(C(=O)O)cc12 | Dose-dependent effect
3 | Cc1c(C(=O)NCCNC(=O)[C@@H](N)Cc2c[nH]c3ccccc23)[nH]c2ccc(C(=O)O)cc12 | Dose-dependent effect
